Columns and labels:
[1] = tested on: Homomeric GluK1 or GluK2 receptors; experiment: Whole-cell patch-clamp current response, homomeric GluK1 or GluK2 receptors; assay type: cell-based, rat; conditions: read-out: EC50 range; summary in discussion of own homomer values
[2] = tested on: GluK3 homomers; conditions: read-out: glutamate EC50; ref Perrais et al, 2009a; cited from earlier work
[3] = tested on: GluK3/K5 heteromer; conditions: read-out: glutamate EC50; ref Perrais et al, 2009a; cited from earlier work
[4] = target: GluK2 receptors; conditions: literature range; ref Jones et al., 1997; Alt et al., 2004; Jane et al., 2009; cited from earlier work
[5] = target: GluK2/K5 receptors; conditions: literature range; ref Jones et al., 1997; Alt et al., 2004; Jane et al., 2009; cited from earlier work

SMILES	EC50 [1] [µM]	EC50 [2] [µM]	EC50 [3] [µM]	EC50 [4] [µM]	EC50 [5] [µM]
N[C@@H](CCC(=O)O)C(=O)O [glutamate]	100 to 200	10000	6000		
C=C(C)[C@H]1CN[C@H](C(=O)O)[C@H]1CC(=O)O [kainate]				1 to 5	1 to 5

From article PMC4172534 (Neuroscience, 2014)
